In ChEMBL document CHEMBL5346873, “Strategic modification of low-activity natural antimicrobial peptides confers antibacterial potential in vitro and in vivo” (Eur J Med Chem, 2023):
Converted amounts (≈) assume the structure as drawn.

Columns and labels:
Acinetobacter baumannii [1] = assay: Antibacterial activity against Acinetobacter baumannii; type: functional
Pseudomonas aeruginosa = assay: Antibacterial activity against Pseudomonas aeruginosa incubated for 16 to 20 hrs; type: functional; settings: time 16-20 hrs
Vibrio vulnificus [2] = assay: Antibacterial activity against Vibrio vulnificus 204 incubated for 16 to 20 hrs; type: functional; settings: time 16-20 hrs
Klebsiella pneumoniae = assay: Antibacterial activity against NDM Klebsiella pneumoniae incubated for 16 to 20 hrs; type: functional; settings: time 16-20 hrs
Escherichia coli = assay: Antibacterial activity against Escherichia coli incubated for 16 to 20 hrs; type: functional; settings: time 16-20 hrs
Streptococcus iniae = assay: Antibacterial activity against Streptococcus iniae incubated for 16 to 20 hrs; type: functional; settings: time 16-20 hrs
Streptococcus agalactiae = assay: Antibacterial activity against Streptococcus agalactiae incubated for 16 to 20 hrs; type: functional; settings: time 16-20 hrs
Klebsiella aerogenes = assay: Antibacterial activity against Enterobacter aerogenes incubated for 16 to 20 hrs; type: functional; settings: time 16-20 hrs
Acinetobacter baumannii [3] = assay: Bactericidal activity against Acinetobacter baumannii incubated for overnight; type: functional
Staphylococcus aureus = assay: Bactericidal activity against Staphylococcus aureus incubated for overnight; type: functional
[4] = Hemolytic activity in human RBC at 100 ug/ml incubated for 1 hr; type: toxicity, cell-based, Erythrocyte; settings: human red blood cells (erythrocytes), at 100 µg/mL, read-out: Activity
Vibrio vulnificus [5] = assay: Antibacterial activity against Vibrio vulnificus 204 assessed as induction of resistance development by measuring fold increase in MIC measured after 15 passages; type: functional

Row | Compound | MBC (Acinetobacter baumannii [3]) [µg/mL] | MBC (Staphylococcus aureus) [µg/mL] | hemolysis at 1 h, 100 ug/ml [4] [%] | other results
1 | C[C@@H](O)[C@H]1C(=O)N2C(C(=O)O)=C(S[C@@H]3CN[C@H](C(=O)N(C)C)C3)[C@H](C)[C@H]12 [MEROPENEM] |  |  |  | MIC (Acinetobacter baumannii [1]): 0.39 µg/mL (≈ 1.02 µM); MIC (Pseudomonas aeruginosa): 0.39 µg/mL (≈ 1.02 µM); MIC (Vibrio vulnificus [2]): 0.024 µg/mL (≈ 0.0626 µM); MIC (Klebsiella pneumoniae): 200 µg/mL (≈ 522 µM); MIC (Escherichia coli): 0.012 µg/mL (≈ 0.0313 µM); MIC (Streptococcus iniae): 0.39 µg/mL (≈ 1.02 µM); MIC (Streptococcus agalactiae): 0.024 µg/mL (≈ 0.0626 µM); MIC (Klebsiella aerogenes): 0.024 µg/mL (≈ 0.0626 µM)
2 | H-FKWKSVLKGVKGFVDGYF-OH | > 100 | > 100 | 99.8 | 
3 | H-FKWKSVLKIVKIFVKIYF-OH | 12.5 | > 100 | 14.2 | 
4 | H-KKCIAKAILKKADDLLDDLVNP-OH | > 100 | > 100 | 0 | 
5 | H-FKWKSVLKIVDIFVDIYF-OH | > 100 | > 100 | 67.8 | 
6 | H-FKWKSVLKGVDGFVDGYF-OH | > 100 | > 100 | 101 | 
7 | CN(C)[C@@H]1C(O)=C(C(N)=O)C(=O)[C@@]2(O)C(O)=C3C(=O)c4c(O)cccc4[C@@](C)(O)[C@H]3C[C@@H]12 [TETRACYCLINE] |  |  |  | fold change (FC) (Vibrio vulnificus [5]): 128
8 | H-KKCIAKAILKKAKKLLDDLVNP-OH | 6.25 | > 100 | 0 | 
9 | H-GKCIWKAIFKGAKKFLKKLVNP-OH | 1.56 | 50 | 72.4 | 
10 | H-FDWDSVLKGVEGFVRGYF-OH | > 100 | > 100 | 15.2 | 
11 | H-FKWKSVLKIVKIFVDIYF-OH | > 100 | > 100 | 48.1 | 
